# Source: US6362166B1, “Antipicornaviral compounds and methods for their use and preparation” (Agouron Pharmaceuticals, Inc., priority 1996, dated 2002)
# pEC50, pKi: −log10 of the molar value. Like-named read-outs stand apart in the source and are kept apart here.
# What was measured:
# [1] = Cytotoxicity in mock-infected HI-HeLa cells (antirhinoviral assay, XTT); assay type: cell-based; conditions: human; mock-infected HI-HeLa cells; two days; XTT; read-out: CC50
# HRV-14 = experiment: Antirhinoviral HI-HeLa Cell Culture Assay (Cell Protection Assay, XTT dye reduction); assay type: cell-based, human rhinovirus (HRV) serotype-14
# Outline: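 HI-HeLa cells infected with HRV-14 at m.o.i. 0.13 or mock-infected, then incubated with compounds for two days. Cell protection read by XTT/PMS formazan at 450/650 nm; therapeutic index = CC50/EC50.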
# [2] = target: T1, Recombinant Rhinovirus 3C protease (RVP) serotype-14 (Human rhinovirus 14, UniProt P03303); experiment: Inhibition of Rhinovirus Protease (fluorescence resonance energy transfer assay), serotype 14; assay type: biochemical, human rhinovirus (HRV); conditions: for kinact/KI: pH 7.6, read-out: kobs/I; for kobs/I: progress curves in enzyme start experiments
# T1 construct: Recombinant Rhinovirus 3C proteases from serotypes 14, 16, 2 or 89; made in house
# HI-HeLa cells = experiment: Cytotoxicity in mock-infected HI-HeLa cells (antirhinoviral assay, XTT); assay type: cell-based
# [3] = Rhinovirus B, HRV14, 48 h, HI-HeLa cells infected with HRV-14, m.o.i. 0.13, two days, XTT, read-out: EC50
# [4] = HI-HeLa cells infected with HRV-14, m.o.i. 0.13, two days, XTT, read-out: EC50
# T1 sequence (P03303 1538-1719): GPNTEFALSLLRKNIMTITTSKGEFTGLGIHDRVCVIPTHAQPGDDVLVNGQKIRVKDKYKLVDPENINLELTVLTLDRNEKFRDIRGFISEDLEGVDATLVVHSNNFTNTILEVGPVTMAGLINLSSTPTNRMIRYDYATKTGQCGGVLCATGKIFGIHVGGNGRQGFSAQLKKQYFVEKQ
SMILES,CC50 at 2 days [1],pEC50 (HRV-14; [3]),pKi [2],kinact/KI [2],"pEC50 (HRV-14; Rhinovirus B, HRV14, 48 h)",CC50 (HI-HeLa cells),pEC50 (HRV-14; [4]),kobs/I ([2]; RVP serotype-14),"INHIB (percent inhibition) ([2]; RVP serotype-14, 10 μM compound, 10 minute preincubation with 50 nM RVP)"
CCOC(=O)/C=C/[C@H](CCC(N)=O)NC(=O)[C@H](Cc1ccccc1)NC(=O)[C@H](CC(C)C)NC(=O)CCO [Compound 115],> 320 µM,4.72,4.96,4480 M⁻¹ s⁻¹,,,,,
CCOC(=O)/C=C/[C@H](CCC(N)=O)NC(=O)[C@H](Cc1ccccc1)NC(=O)[C@@H](NC(=O)OCc1ccccc1)C(C)O (stereo partly drawn) [Compound 152],> 320 µM,5.75,5.49,38900 M⁻¹ s⁻¹,,,,,
CC(C)C[C@H](NC(=O)OCc1ccccc1)C(=O)N[C@@H](Cc1ccccc1)C(=O)N[C@H](/C=C/C(=O)N1CCc2cccc(Cl)c21)CCC(N)=O [Compound 91],> 320 µM,4.25,5.00,5430 M⁻¹ s⁻¹,,,,,
CCOC(=O)/C=C/[C@H](CCC(N)=O)NC(=O)[C@H](Cc1ccccc1)NC(=O)[C@H](CC(C)C)NC(=O)CSc1ccccn1 [Compound 118],> 320 µM,4.75,4.41,1450 M⁻¹ s⁻¹,,,,,
CCOC(=O)/C=C/[C@H](CCC(N)=O)NC(=O)[C@H](Cc1ccccc1)NC(=O)[C@H](CC(C)C)NC(=O)CO [Compound 111],> 320 µM,4.53,5.30,2060 M⁻¹ s⁻¹,,,,,
CCOC(=O)/C=C/[C@H](CCC(N)=O)NC(=O)[C@H](Cc1ccccc1)NC(=O)[C@H](CC(C)C)NC(=O)OCc1ccncc1 [Compound 36],> 320 µM,5.25,4.82,12000 M⁻¹ s⁻¹,,,,,
CC(C)C[C@H](NC(=O)OCc1ccccc1)C(=O)N[C@@H](Cc1ccccc1)C(=O)N[C@H](/C=C/C(=O)N1CCc2cc(F)ccc21)CCC(N)=O [Compound 87],> 320 µM,4.97,5.22,5430 M⁻¹ s⁻¹,,,,,
CCOC(=O)/C=C/[C@H](CCC(N)=O)NC(=O)[C@H](Cc1ccccc1)NC(=O)[C@H](CC(C)C)NC(C)=O [Compound 107],> 320 µM,4.87,4.87,3660 M⁻¹ s⁻¹,,,,,
CC(C)CC(NC(=O)OCc1ccccc1)C(=O)NC(Cc1ccccc1)C(=O)NC(C=C1CCCOC1=O)CCC(N)=O (stereo not drawn) [Compound 130],> 100 µM,4.80,7.40 to 7.52,,,,,,
"CC(C)C[C@H](NC(=O)OCc1ccccc1)C(=O)N[C@@H](Cc1ccccc1)C(=O)N[C@H](/C=C/C(=O)OC(C)C)CCC(N)=O [Compound 17, Isopropyl-3-(CBZ-L-Leu-L-Phe-L-Gln)-E-Propenoate]",> 100 µM,5.74,5.90,6100 M⁻¹ s⁻¹,,,,,
CCOC(=O)/C=C/[C@H](CCC(N)=O)NC(=O)[C@H](Cc1cnc[nH]1)NC(=O)[C@H](CC(C)C)NC(=O)OCc1ccccc1 [Compound 112],> 320 µM,,4.89,6800 M⁻¹ s⁻¹,4.57,,,,
CC(=O)OCC=CC(CCC(N)=O)NC(=O)C(Cc1ccccc1)NC(=O)C(CC(C)C)NC(=O)OCc1ccccc1 (stereo not drawn) [Compound 76],> 320 µM,< 3.49,,,,,,,
COc1cccc2[nH]c(C(=O)NC(Cc3ccc(F)cc3)C(=O)NC(/C=C/C(=O)O)CCC(N)=O)cc12 (stereo not drawn) [Compound 45],> 100 µM,< 4.00,,,,,,,
CC(C)C[C@H](NC(=O)OCc1ccccc1)C(=O)N[C@@H](Cc1ccccc1)C(=O)N[C@H](/C=C/CCl)CCC(N)=O [Compound 74],250 µM,5.00,5.62,,,,,,
CC(C)C[C@H](NC(=O)OCc1ccccc1)C(=O)N[C@@H](Cc1ccccc1)C(=O)N[C@H](/C=C\CCl)CCC(N)=O [Compound 78],79.4 µM,5.00,5.15,,,,,,
CON=C/C=C/[C@H](CCC(N)=O)NC(=O)[C@H](Cc1ccccc1)NC(=O)[C@H](CC(C)C)NC(=O)OCc1ccccc1 [Compound 83],> 320 µM,4.00,5.10,,,,,,

SMILES,CC50 at 2 days [1],pEC50 (HRV-14; [3]),pKi [2],kinact/KI [2],"pEC50 (HRV-14; Rhinovirus B, HRV14, 48 h)",CC50 (HI-HeLa cells),pEC50 (HRV-14; [4]),kobs/I ([2]; RVP serotype-14),"INHIB (percent inhibition) ([2]; RVP serotype-14, 10 μM compound, 10 minute preincubation with 50 nM RVP)"
CCOC(=O)/C=C/C(CCC(N)=O)NC(=O)C(Cc1ccccc1)NC(=O)C(CC(C)C)NC(=O)c1ccc2ccccc2c1 (stereo not drawn) [Compound 44],> 320 µM,6.00,4.90,21000 M⁻¹ s⁻¹,,,,,
CC(C)CC(NC(=O)OCc1ccccc1)C(=O)NC(Cc1ccccc1)C(=O)NC(C=CCOc1ccc(C(F)(F)F)cc1)CCC(N)=O (stereo not drawn) [Compound 77],> 320 µM,< 3.49,,,,,,,
"CCOC(=O)/C=C/C(CCC(N)=O)NC(=O)C(Cc1ccc(Cl)cc1)NC(=O)c1cc2c(OC)cccc2n1C(c1ccccc1)(c1ccccc1)c1ccccc1 [Compound 29, Ethyl-3-[N-(1-Tr-4-Methoxyindole-2-Carbonyl)-L-(4-Cl-Phe)-L-Gln]-E-Propenoate]",500 µM,4.57,,,,,,,
CC(C)C[C@H](NC(=O)OCc1ccccc1)C(=O)N[C@@H](Cc1ccccc1)C(=O)N[C@H](/C=C/C(=O)OCC(C)(C)C)CCC(N)=O [Compound 163],> 100 µM,6.30,5.44,9800 M⁻¹ s⁻¹,,,,,
CCOC(=O)/C=C/[C@H](CCC(N)=O)NC(=O)[C@H](Cc1ccccc1)NC(=O)CNC(=O)OCc1ccccc1 [Compound 102],> 320 µM,5.25,4.92,3840 M⁻¹ s⁻¹,,,,,
CC(C)CC(NC(=O)OCc1ccccc1)C(=O)NC(Cc1ccccc1)C(=O)NC(C=Cc1ccccc1C#N)CCC(N)=O (stereo not drawn) [Compound 145],> 320 µM,< 3.49,4.70 to 5.00,,,,,,
CC(C)C[C@H](NC(=O)OCc1ccccc1)C(=O)N[C@@H](Cc1ccccc1)C(=O)N[C@H](/C=C/C(=O)N1CCc2cc(Br)ccc21)CCC(N)=O [Compound 94],> 320 µM,4.33,5.82,5800 M⁻¹ s⁻¹,,,,,
CC(C)C[C@H](NC(=O)OCc1ccccc1)C(=O)N[C@@H](Cc1ccccc1)C(=O)N[C@H](/C=C/C(=O)N1CCc2cc(S(=O)(=O)N(C)C)ccc21)CCC(N)=O [Compound 88],> 160 µM,5.06,< 4.52,8960 M⁻¹ s⁻¹,,,,,
CC(C)C[C@H](NC(=O)OCc1ccccc1)C(=O)N[C@@H](Cc1ccccc1)C(=O)N[C@H](/C=C/c1nccn1C)CCC(N)=O [Compound 65],> 320 µM,3.80,5.54,,,,,,
CCOC(=O)/C=C/[C@H](COC(N)=O)NC(=O)[C@H](Cc1ccccc1)NC(=O)[C@H](CC(C)C)NC(=O)OCc1ccccc1 [Compound 56],> 320 µM,5.80,4.82,5620 M⁻¹ s⁻¹,,,,,
CCOC(=O)/C=C/[C@H](CCC(N)=O)NC(=O)[C@H](Cc1ccccc1)NC(=O)[C@@H](NC(=O)OCc1ccccc1)C(C)(C)C [Compound 151],178 µM,6.49,< 5.32,39800 M⁻¹ s⁻¹,,,,,
COc1ccc2c(c1)CCN2C(=O)C=CC(CCC(N)=O)NC(=O)C(Cc1ccccc1)NC(=O)C(CC(C)C)NC(=O)OCc1ccccc1 (stereo not drawn) [Compound 93],> 320 µM,< 3.49,,3440 M⁻¹ s⁻¹,,,,,
CC(C)C[C@H](NC(=O)OCc1ccccc1)C(=O)N[C@@H](Cc1ccccc1)C(=O)N[C@H](/C=C/C(=O)N1CCc2cc([N+](=O)[O-])ccc21)CCC(N)=O [Compound 86],> 320 µM,4.77,5.40,12000 M⁻¹ s⁻¹,,,,,
CC(C)C[C@H](NC(=O)OCc1ccccc1)C(=O)N[C@@H](Cc1ccccc1)C(=O)N[C@H](/C=C/[N+](=O)[O-])CCC(N)=O [Compound 125],,,,,,100 µM,< 4.00,">500,000 M-1 sec-1",
"CCCS(=O)(=O)N[C@@H](Cc1ccccc1)C(=O)N[C@H](/C=C/C(=O)OCC)CCC(N)=O [Compound 31, Ethyl-3-[N-(Propylsulfonyl)-L-Phe-L-Gln]-E-Propenoate]",,,,,,> 100 µM,4.30,21 M⁻¹ s⁻¹,25(10) percent
CCOC(=O)/C=C/[C@H](CCC(N)=O)NC(=O)[C@H](CC)NC(=O)[C@H](CC(C)C)NC(=O)OCc1ccccc1 [Compound 108],,,,,,> 320 µM,5.22,"4,694 M-1 sec-1",
